Earlier results on 14 molecules are cited in patent publication US5817883A, “Processes for producing hydroxyaldehydes” (Union Carbide Chemicals & Plastics Technology Corporation, priority 1997, dated 1998).

Usually pKb stands for −log10 of the Kb, conventionally taken in molar units.

The conditions of the first data set: Table I, organophosphorus ligand basicity.
Turning to `CCP(CC)C(C)(C)C` [Diethyl-tert-butylphosphine], the pKb is recorded as 10.1. As for `CCP(CC)c1ccccc1` [Diethylphenylphosphine], the pKb is 6.4.

With `c1ccc(P(c2ccccc2)C2CCCCC2)cc1` [Diphenylcyclohexylphosphine], the pKb is recorded as 5. For the molecule `CCP(c1ccccc1)c1ccccc1` [Diphenylethylphosphine], the negative logarithm of the Kb (pKb) is reported as 4.9. For the molecule `CP(c1ccccc1)c1ccccc1` [Diphenylmethylphosphine], the negative logarithm of the Kb (pKb) was 4.5. Regarding `CN(C)c1ccc(P(c2ccc(N(C)C)cc2)c2ccc(N(C)C)cc2)cc1` [Tri(p-N,N-dimethylaminophenyl)phosphine], the pKb was 8.65. Take `COc1ccc(P(c2ccc(OC)cc2)c2ccc(OC)cc2)cc1` [Tri(p-methoxyphenyl)phosphine]: the pKb is recorded as 4.6. As to `CCCCP(CCCC)CCCC` [Tri-n-butylphosphine], the pKb is recorded as 8.4.

With `CCCCCCCCP(CCCCCCCC)CCCCCCCC` [Tri-n-octylphosphine], the pKb is 8.4. Regarding `CCCP(CCC)CCC` [Tri-n-propylphosphine], the pKb is recorded as 8.7. For `C1CCC(P(C2CCCCC2)C2CCCCC2)CC1` [Tricyclohexylphosphine], the pKb is 10.

Regarding `CCP(CC)CC` [Triethylphosphine], the pKb was 8.7. As to `CP(C)C` [Trimethylphosphine], the pKb is 8.7. As for `c1ccc(P(c2ccccc2)c2ccccc2)cc1` [Triphenylphosphine, reference compound], the pKb is given as 2.74.

Still in this data set, the particulars now being: basicity of reference phosphine.
`c1ccc(P(c2ccccc2)c2ccccc2)cc1` [Triphenylphosphine, reference compound]: the pKb is reported as 2.74.
